The test system of data set [1] is Mouse neuroblastoma cells NS-20Y. The data set is described as follows: Neurite appearance in mouse neuroblastoma NS-20Y cells (Table 8).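 Note: cells grown in polyornithine-coated dishes, with timing counted from the start of culture.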 In kind it is cell-based.
Data set [2] concerns mouse. The data set is described as follows: Acute toxicity in mouse (Table 10). In kind it is in vivo. As to the method:
The acute toxicity of the compounds of the invention was examined by the following method.
Male ddy-strain 5-week old mice, 4-6 per group, were used as experimental animals. Each of the compounds was dissolved or suspended in saline and administered perorally (p.o.) or intraperitoneally (i.p.), and the toxicity of the compound was assessed 24 hours after the administration.

In data set [3] the test system is Mouse neuro 2a cells. Nature of the data set: Neurite outgrowth of mouse neuroblastoma neuro 2a cells (Table 7). The conditions noted are these: mean ± S.D. In kind it is cell-based. The procedure:
The biological activities in vitro of the compounds of formula (I) on cells of the nervous system were tested. The cells tested were mouse neuroblastoma cell line neuro-2a (Dainippon Pharmaceutical Co., Ltd.) which have been established as the cells of the nervous system. The above nerve cells were grown in an incubator at 37° C. in the presence of 5% carbon dioxide gas exponentially, and the cultured for a certain period of time together with the compounds of formula (I).
The effects of the compounds of this invention on neuroblastoma cells were examined by the following method.
Mouse neuro 2a cells in the logarithmic growth period in the Dulbecco's modified Eagle's medium [DMEM, containing 100 units/ml of penicillin G sodium and 100 micrograms/ml of streptomycin sulfate] containing 10% of FCS were seeded in a 48-well plate so that the number of cells was 1,000 cells/well, and cultured for one day in 0.25 ml of the culture fluid in each well in an incubator containing 5% of carbon dioxide gas in air at 37° C. The medium was replaced by a medium containing each antibiotics and FCS and the cells were further cultured for 24 hours. Then, a 4% aqueous glutaraldehyde solution in the same amount as a medium (0.25 ml) was added, and the culture was left to stand at room temperature for 2 hours to fix the cells. After washing with water, a 0.05% aqueous solution of methylene blue was added to stain the cells. Under a microscope, the number of cells containing outgrown neurites (cells having at least one neurite with a length of at least two times as large as the long diameter of the cell) was counted visually, and the proportion of these cells in the entire cells was calculated. The well was observed over 5 or more visual fields (at least 2% of the entire surface area of the well) continuous to the left and right from a mark put at the center of the well, and more than 200 cells was counted. One drug compound was used in 6 different concentrations at most, and three runs were conducted for each concentration.

Where [4] appears, read: i.p., 24 hours after administration.

On to `O=C1CCCN1c1ccnc(N2CCCC2)n1` [Compound 320], for which the “The number of cells in which neurites appeared/Total number of cells” value is 5/50 in data set [1] (24 hour, 0.1 mM); 6/50 in data set [1] (24 hour, 0.5 mM); 3/50 in data set [1] (48 hour, 0.5 mM). Besides, in data set [2] (setting [4]), the “Estimated LD50” value is reported as more than 500 mg/kg. For the same compound, the “Ratio of the number of cells having neurites with a length of at least two times as large as the diameter of cells to the total number of cells” value (“Ratio” below) in data set [3] (0.01 mM) amounted to 4.2 ± 1.9%; in data set [3] (0.1 mM), 4.2 ± 0.3%; in data set [3] (0.3 mM), 11.0 ± 0.8%; in data set [3] (1 mM) it was 10.7 ± 4.7%.

On to `CC1CCCCN1c1nccc(N2CCCC2=O)n1` (stereo not drawn) [Compound 328], for which the “The number of cells in which neurites appeared/Total number of cells” value is given as 3/50 in data set [1] (24 hour, 0.1 mM) and 3/50 in data set [1] (48 hour, 0.1 mM). In data set [2] (in vivo, ip), the “Estimated LD50” value is 250 to 500 mg/kg. Further, the “Ratio” value in data set [3] (0.01 mM) was 3.9 ± 0.9%; in data set [3] (0.3 mM), 5.6 ± 1.7%.

With `CC1CCCN(c2nccc(N3CCCC3=O)n2)C1` (stereo not drawn) [Compound 336], the “The number of cells in which neurites appeared/Total number of cells” value is listed as 3/50 in data set [1] (24 hour, 0.1 mM) and 5/50 in data set [1] (48 hour, 0.1 mM). Also, in data set [2] (in vivo, ip), the “Estimated LD50” value was 250 to 500 mg/kg. Further, the “Ratio” value in data set [3] (0.03 mM) came to 4.0 ± 1.0%; in data set [3] (0.1 mM), 5.7 ± 1.6%; in data set [3] (0.3 mM), 21.3 ± 3.0%; in data set [3] (1 mM) it was 21.2 ± 1.6%.

Turning to `CC1CC(C)CN(c2nccc(N3CCCC3=O)n2)C1` (stereo not drawn) [Compound 344], the “The number of cells in which neurites appeared/Total number of cells” value is reported as 3/50 in data set [1] (24 hour, 0.1 mM) and 3/50 in data set [1] (48 hour, 0.1 mM). Further, the “Estimated LD50” value in data set [2] (in vivo, ip) was 250 to 500 mg/kg. The “Ratio” value in data set [3] (0.01 mM) amounted to 5.6 ± 1.6%; in data set [3] (0.1 mM), 7.5 ± 3.3%; in data set [3] (0.3 mM), 10.4 ± 3.4%; in data set [3] (1 mM) it was 12.5 ± 1.3%.

With `O=C1CCCN1c1ccnc(N2CCc3ccccc3C2)n1` [Compound 352], the “The number of cells in which neurites appeared/Total number of cells” value in data set [1] (24 hour, 0.2 mM) is recorded as 5/50; in data set [1] (48 hour, 0.2 mM) it was 3/50. The “Estimated LD50” value in data set [2] (setting [4]) is more than 500 mg/kg. The results for the “Ratio” value in data set [3] (0.01 mM) and in data set [3] (0.3 mM) were 3.4 ± 0.1% and 4.2 ± 0.6%, respectively.

In the case of `O=C1CCCN1c1ccnc(N2CCCc3ccccc32)n1` [Compound 360], the “The number of cells in which neurites appeared/Total number of cells” value in data set [1] (24 hour, 0.1 mM) was 5/50; in data set [1] (24 hour, 0.5 mM), 6/50; in data set [1] (48 hour, 0.1 mM), 3/50. For the same compound, the “Estimated LD50” value in data set [2] (setting [4]) is listed as more than 500 mg/kg. For the same compound, the entries for the “Ratio” value in data set [3] (0.03 mM) and in data set [3] (0.3 mM) were 4.8 ± 1.2% and 6.7 ± 0.8%, respectively.

Take `O=C1CCCN1c1ccnc(N2CCC(Cc3ccccc3)CC2)n1` [Compound 368]: the “The number of cells in which neurites appeared/Total number of cells” value in data set [1] (24 hour, 0.2 mM) is 6/50; in data set [1] (48 hour, 0.2 mM), 2/50. The “Estimated LD50” value in data set [2] (setting [4]) is more than 500 mg/kg. Besides, the “Ratio” value in data set [3] (0.01 mM) is reported as 3.4 ± 0.3%; in data set [3] (0.1 mM), 14.4 ± 1.7%.

Take `CCOC(=O)C1CCN(c2nccc(N3CCCC3=O)n2)CC1` [Compound 376]: the “The number of cells in which neurites appeared/Total number of cells” value was 5/50 in data set [1] (24 hour, 0.2 mM) and 5/50 in data set [1] (48 hour, 0.2 mM). For the same compound, the “Estimated LD50” value in data set [2] (setting [4]) is more than 500 mg/kg. The “Ratio” value in data set [3] (0.01 mM) was determined as 3.4 ± 0.6%; in data set [3] (0.1 mM) it was 4.4 ± 0.8%; in data set [3] (0.3 mM), 6.0 ± 0.5%.

As for `O=C1CCCN1c1ccnc(N2CCNCC2)n1` [Compound 384], the “The number of cells in which neurites appeared/Total number of cells” value in data set [1] (24 hour, 0.2 mM) was 10/50; in data set [1] (24 hour, 0.5 mM) it was 14/50; in data set [1] (48 hour, 0.2 mM), 10/50; in data set [1] (48 hour, 0.5 mM) it was 17/50. The “Estimated LD50” value in data set [2] (setting [4]) is on record as more than 500 mg/kg. The “Ratio” value was found to be 4.1 ± 1.5% in data set [3] (0.01 mM), 5.1 ± 2.1% in data set [3] (0.1 mM), 8.3 ± 2.7% in data set [3] (0.3 mM) and 11.5 ± 1.3% in data set [3] (1 mM).

Turning to `O=C1CCCN1c1ccnc(N2CCOCC2)n1` [Compound 392], the “The number of cells in which neurites appeared/Total number of cells” value in data set [1] (24 hour, 0.2 mM) was 10/50; in data set [1] (24 hour, 0.5 mM), 15/50; in data set [1] (48 hour, 0.2 mM) it was 12/50; in data set [1] (48 hour, 0.5 mM), 21/50. In addition, the “Estimated LD50” value in data set [2] (setting [4]) is reported as more than 500 mg/kg. For the same compound, the “Ratio” value was found to be 6.6 ± 2.2% in data set [3] (0.03 mM), 5.6 ± 3.7% in data set [3] (0.1 mM) and 6.1 ± 4.0% in data set [3] (0.3 mM).

For `O=C1CCCN1c1ccnc(N2CCSCC2)n1` [Compound 400], the “The number of cells in which neurites appeared/Total number of cells” value is reported as 8/50 in data set [1] (24 hour, 0.2 mM); 9/50 in data set [1] (24 hour, 0.5 mM); 11/50 in data set [1] (48 hour, 0.2 mM); 13/50 in data set [1] (48 hour, 0.5 mM). Moreover, the “Estimated LD50” value in data set [2] (setting [4]) is more than 500 mg/kg. For the same compound, the “Ratio” value turned out to be 5.0 ± 0.1% in data set [3] (0.03 mM), 6.3 ± 0.7% in data set [3] (0.1 mM), 11.2 ± 1.5% in data set [3] (0.3 mM) and 12.1 ± 1.4% in data set [3] (1 mM).

Source of the values: patent US5358945A, “Pyrimidine compound and pharmaceutically acceptable salts thereof” (Mitsui Petrochemical Industries, Ltd., priority 1990, dated 1994).
